Assays:
[1] = target: Delta-type opioid receptor (Mus musculus, UniProt P32300); experiment: Concentration required for 50% inhibition of electrically induced contraction of the mouse vas deferens mediated through delta opioid receptor; type: functional
Mu-type opioid receptor = Mu-type opioid receptor (Cavia porcellus, UniProt P97266); experiment: Concentration required for 50% inhibition of electrically induced contraction of the guinea pig ileum mediated through mu opioid receptor; type: functional, tissue-based
[2] = system: Opioid receptors; mu & delta; experiment: Selectivity ratio against mu opioid receptor to that of delta opioid receptor was determined

Chain of Delta-type opioid receptor (P32300 whole entry): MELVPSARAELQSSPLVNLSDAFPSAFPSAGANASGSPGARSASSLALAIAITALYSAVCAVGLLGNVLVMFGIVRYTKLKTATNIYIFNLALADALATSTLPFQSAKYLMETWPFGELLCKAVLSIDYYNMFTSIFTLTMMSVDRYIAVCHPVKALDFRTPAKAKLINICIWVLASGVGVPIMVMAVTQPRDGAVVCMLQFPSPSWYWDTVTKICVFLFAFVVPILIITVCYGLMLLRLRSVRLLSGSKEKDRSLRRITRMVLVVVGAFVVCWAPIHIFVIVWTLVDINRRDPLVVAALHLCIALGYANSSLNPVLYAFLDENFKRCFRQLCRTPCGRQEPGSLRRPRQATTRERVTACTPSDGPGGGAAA
Chain of Mu-type opioid receptor (P97266 whole entry): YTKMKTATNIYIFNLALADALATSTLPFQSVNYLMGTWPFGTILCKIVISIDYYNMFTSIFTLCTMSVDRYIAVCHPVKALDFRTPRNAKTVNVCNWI

| SMILES | IC50 [1] [nM] | IC50 (Mu-type opioid receptor) [nM] | Ratio [2] |
| --- | --- | --- | --- |
| C[C@@H]1NC(=O)[C@H](Cc2ccccc2)NC(=O)[C@@H](CCCCN)N(C(=O)[C@@H](N)Cc2ccc(O)cc2)C1=O | 0.54 | 0.11 | – |
| CC[C@@H](C)[C@H]1NC(=O)[C@H](Cc2ccccc2)NC(=O)[C@H](CCCCN)N(C(=O)[C@@H](N)Cc2ccc(O)cc2)C1=O | – | – | 6 |
| C[C@H]1NC(=O)[C@H](Cc2ccccc2)NC(=O)[C@H](CCN)N(C(=O)[C@@H](N)Cc2ccc(O)cc2)C1=O | – | – | 12 |
| CC(C)C[C@@H]1NC(=O)[C@H](Cc2ccccc2)NC(=O)[C@@H](CCCCN)N(C(=O)[C@@H](N)Cc2ccc(O)cc2)C1=O | 6.2 | 1.4 | – |
| CC(C)[C@H]1NC(=O)[C@H](Cc2ccccc2)NC(=O)[C@H](CCCCN)N(C(=O)[C@@H](N)Cc2ccc(O)cc2)C1=O | – | – | 2.2 |
| C[C@H]1NC[C@H](Cc2ccccc2)NC(=O)[C@H](CCN)N(C(=O)[C@@H](N)Cc2ccc(O)cc2)C1=O | 252 | 21.4 | 12 |
| C[C@@H]1NC(=O)[C@H](Cc2ccccc2)NC(=O)[C@@H](CCN)N(C(=O)[C@@H](N)Cc2ccc(O)cc2)C1=O | 40 | 3.5 | – |
| NCCCC[C@@H]1C(=O)N[C@@H](Cc2ccccc2)C(=O)N[C@@H](CC(=O)O)C(=O)N1C(=O)[C@@H](N)Cc1ccc(O)cc1 | 73.8 | 78.8 | – |
| C[C@H]1NC(=O)[C@H](Cc2ccccc2)NC(=O)[C@H](CCCCN)N(C(=O)[C@@H](N)Cc2ccc(O)cc2)C1=O | – | – | 4.9 |
| NCCCC[C@H]1C(=O)N[C@@H](Cc2ccccc2)C(=O)N[C@H](CC(=O)O)C(=O)N1C(=O)[C@@H](N)Cc1ccc(O)cc1 | – | – | 0.94 |
| CC[C@H](C)[C@@H]1NC(=O)[C@H](Cc2ccccc2)NC(=O)[C@@H](CCCCN)N(C(=O)[C@@H](N)Cc2ccc(O)cc2)C1=O | 6.3 | 1.1 | – |
| CC(C)C[C@H]1NC(=O)[C@H](Cc2ccccc2)NC(=O)[C@H](CCCCN)N(C(=O)[C@@H](N)Cc2ccc(O)cc2)C1=O | – | – | 4.5 |
| CC(C)[C@@H]1NC(=O)[C@H](Cc2ccccc2)NC(=O)[C@@H](CCCCN)N(C(=O)[C@@H](N)Cc2ccc(O)cc2)C1=O | 0.44 | 0.2 | – |
